Laboratory results taken from ChEMBL document CHEMBL3885861, “Open TG-GATES”.

Species: Rattus norvegicus
Assay: Open TG-GATES - Regimen: Daily Repeat
Format: toxicity, organism-based, Sprague-Dawley
Set-up: regimen Daily Repeat, gender Male, age 6 weeks
Conditions: in vivo, po, 30 mg/kg, route gavage, dose level High; for APTT / Bas / Eos / Fbg / Hb / Ht / Lym / MCH / MCHC / MCV / Mono / Neu / PT / Plat / RBC / Ret / WBC: tissue Blood; for KIDNEY_L / KIDNEY_R / KIDNEY_TOTAL: tissue Kidney; for LIVER: tissue Liver; for A/G / ALP / ALT / AST / BUN / CRE / Ca / Cl / DBIL / GLC / IP / K / LDH / Na / PL / RALB / TBIL / TC / TG / TP / gamma-GTP: tissue Plasma

C=CCO [ALLYL ALCOHOL]
TERMINAL_BW (72 h, time 3 day): 229 g | APTT (72 h, time 3 day): 18.4 s | Bas (72 h, time 3 day): 0% | Eos (72 h, time 3 day): 0.8% | Fbg (72 h, time 3 day): 258.6 mg/dL | Hb (72 h, time 3 day): 13.4 g/dL | Ht (72 h, time 3 day): 39.4% | Lym (72 h, time 3 day): 80% | MCH (72 h, time 3 day): 20.9 pg | MCHC (72 h, time 3 day): 33.9% | MCV (72 h, time 3 day): 61.7 fL | Mono (72 h, time 3 day): 3.4% | Neu (72 h, time 3 day): 15.2% | PT (72 h, time 3 day): 11.7 s | Plat (72 h, time 3 day): 142.1 x10_4/uL | RBC (72 h, time 3 day): 639.6 x10_4/ul | Ret (72 h, time 3 day): 4.7% | WBC (72 h, time 3 day): 128.3 x10_2/uL | KIDNEY_L (72 h, time 3 day): 1 g | KIDNEY_R (72 h, time 3 day): 1 g | KIDNEY_TOTAL (72 h, time 3 day): 2 g | LIVER (72 h, time 3 day): 11.1 g | A/G (72 h, time 3 day): 1.5 | ALP (72 h, time 3 day): 874.6 IU/L | ALT (72 h, time 3 day): 39.6 IU/L | AST (72 h, time 3 day): 71 IU/L | BUN (72 h, time 3 day): 13.6 mg/dL | CRE (72 h, time 3 day): 0.4 mg/dL | Ca (72 h, time 3 day): 10.5 mg/dL | Cl (72 h, time 3 day): 103.2 meq/L | DBIL (72 h, time 3 day): 0.058 mg/dL | GLC (72 h, time 3 day): 206.2 mg/dL | IP (72 h, time 3 day): 7.4 mg/dL | K (72 h, time 3 day): 3.5 meq/L | LDH (72 h, time 3 day): 221.2 IU/L | Na (72 h, time 3 day): 141.2 meq/L | PL (72 h, time 3 day): 125.4 mg/dL | RALB (72 h, time 3 day): 3 g/dL | TBIL (72 h, time 3 day): 0.1 mg/dL | TC (72 h, time 3 day): 73.2 mg/dL | TG (72 h, time 3 day): 59 mg/dL | TP (72 h, time 3 day): 5 g/dL | gamma-GTP (72 h, time 3 day): 1 IU/L | TERMINAL_BW ([…], time 7 day): 238.1 g | TERMINAL_BW ([…], time 14 day): 285 g | TERMINAL_BW ([…], time 28 day): 374.2 g | APTT ([…], time 7 day): 21.6 s | Bas ([…], time 7 day): 0% | Eos ([…], time 7 day): 0.8% | Fbg ([…], time 7 day): 334.8 mg/dL | Hb ([…], time 7 day): 14 g/dL | Ht ([…], time 7 day): 40.7% | Lym ([…], time 7 day): 74% | MCH ([…], time 7 day): 20.6 pg | MCHC ([…], time 7 day): 34.4% | MCV ([…], time 7 day): 60.2 fL | Mono ([…], time 7 day): 5.6% | Neu ([…], time 7 day): 18.2% | PT ([…], time 7 day): 13.1 s | Plat ([…], time 7 day): 146.5 x10_4/uL | RBC ([…], time 7 day): 676 x10_4/ul | Ret ([…], time 7 day): 3.1% | WBC ([…], time 7 day): 193.8 x10_2/uL | APTT ([…], time 14 day): 19.2 s | Bas ([…], time 14 day): 0% | Eos ([…], time 14 day): 0.8% | Fbg ([…], time 14 day): 250.6 mg/dL | Hb ([…], time 14 day): 13.7 g/dL | Ht ([…], time 14 day): 40% | Lym ([…], time 14 day): 70.2% | MCH ([…], time 14 day): 19.6 pg | MCHC ([…], time 14 day): 34.2% | MCV ([…], time 14 day): 57.3 fL | Mono ([…], time 14 day): 3.8% | Neu ([…], time 14 day): 24.8% | PT ([…], time 14 day): 12.4 s | Plat ([…], time 14 day): 192.6 x10_4/uL | RBC ([…], time 14 day): 698 x10_4/ul | Ret ([…], time 14 day): 5.4% | WBC ([…], time 14 day): 181.3 x10_2/uL | APTT ([…], time 28 day): 20.5 s | Bas ([…], time 28 day): 0% | Eos ([…], time 28 day): 1.2% | Fbg ([…], time 28 day): 218.6 mg/dL | Hb ([…], time 28 day): 15.2 g/dL | Ht ([…], time 28 day): 44.1% | Lym ([…], time 28 day): 78% | MCH ([…], time 28 day): 18.7 pg | MCHC ([…], time 28 day): 34.5% | MCV ([…], time 28 day): 54.3 fL | Mono ([…], time 28 day): 2.8% | Neu ([…], time 28 day): 17.2% | PT ([…], time 28 day): 12.1 s | Plat ([…], time 28 day): 107.4 x10_4/uL | RBC ([…], time 28 day): 813.2 x10_4/ul | Ret ([…], time 28 day): 2.8% | WBC ([…], time 28 day): 109.1 x10_2/uL | KIDNEY_L ([…], time 7 day): 1 g | KIDNEY_R ([…], time 7 day): 1.1 g | KIDNEY_TOTAL ([…], time 7 day): 2.1 g | KIDNEY_L ([…], time 14 day): 1.2 g | KIDNEY_R ([…], time 14 day): 1.2 g | KIDNEY_TOTAL ([…], time 14 day): 2.4 g | KIDNEY_L ([…], time 28 day): 1.3 g | KIDNEY_R ([…], time 28 day): 1.3 g | KIDNEY_TOTAL ([…], time 28 day): 2.6 g | LIVER ([…], time 7 day): 12.6 g | LIVER ([…], time 14 day): 14.4 g | LIVER ([…], time 28 day): 16.7 g | A/G ([…], time 7 day): 1.2 | ALP ([…], time 7 day): 938.4 IU/L | ALT ([…], time 7 day): 195.4 IU/L | AST ([…], time 7 day): 610 IU/L | BUN ([…], time 7 day): 11.4 mg/dL | CRE ([…], time 7 day): 0.4 mg/dL | Ca ([…], time 7 day): 10.6 mg/dL | Cl ([…], time 7 day): 102.4 meq/L | DBIL ([…], time 7 day): 0.088 mg/dL | GLC ([…], time 7 day): 182.4 mg/dL | IP ([…], time 7 day): 7 mg/dL | K ([…], time 7 day): 3.7 meq/L | LDH ([…], time 7 day): 310.6 IU/L | Na ([…], time 7 day): 140.6 meq/L | PL ([…], time 7 day): 130.8 mg/dL | RALB ([…], time 7 day): 3 g/dL | TBIL ([…], time 7 day): 0.2 mg/dL | TC ([…], time 7 day): 72.6 mg/dL | TG ([…], time 7 day): 62.8 mg/dL | TP ([…], time 7 day): 5.6 g/dL | gamma-GTP ([…], time 7 day): 2.6 IU/L | A/G ([…], time 14 day): 1.3 | ALP ([…], time 14 day): 758.4 IU/L | ALT ([…], time 14 day): 42.8 IU/L | AST ([…], time 14 day): 85.6 IU/L | BUN ([…], time 14 day): 14.2 mg/dL | CRE ([…], time 14 day): 0.4 mg/dL | Ca ([…], time 14 day): 10.7 mg/dL | Cl ([…], time 14 day): 101.8 meq/L | DBIL ([…], time 14 day): 0.07 mg/dL | GLC ([…], time 14 day): 202.6 mg/dL | IP ([…], time 14 day): 6.7 mg/dL | K ([…], time 14 day): 3.5 meq/L | LDH ([…], time 14 day): 234.8 IU/L | Na ([…], time 14 day): 141 meq/L | PL ([…], time 14 day): 140.8 mg/dL | RALB ([…], time 14 day): 3.4 g/dL | TBIL ([…], time 14 day): 0.1 mg/dL | TC ([…], time 14 day): 70.2 mg/dL | TG ([…], time 14 day): 69.6 mg/dL | TP ([…], time 14 day): 5.9 g/dL | gamma-GTP ([…], time 14 day): 1.4 IU/L | A/G ([…], time 28 day): 1.2 | ALP ([…], time 28 day): 615.8 IU/L | ALT ([…], time 28 day): 39.2 IU/L | AST ([…], time 28 day): 64 IU/L | BUN ([…], time 28 day): 16.8 mg/dL | CRE ([…], time 28 day): 0.5 mg/dL | Ca ([…], time 28 day): 10.5 mg/dL | Cl ([…], time 28 day): 102.6 meq/L | DBIL ([…], time 28 day): 0.068 mg/dL | GLC ([…], time 28 day): 220.6 mg/dL | IP ([…], time 28 day): 5.6 mg/dL | K ([…], time 28 day): 3.5 meq/L | LDH ([…], time 28 day): 188.2 IU/L | Na ([…], time 28 day): 139.6 meq/L | PL ([…], time 28 day): 135.6 mg/dL | RALB ([…], time 28 day): 3.3 g/dL | TBIL ([…], time 28 day): 0.1 mg/dL | TC ([…], time 28 day): 65.6 mg/dL | TG ([…], time 28 day): 98.6 mg/dL | TP ([…], time 28 day): 6 g/dL | gamma-GTP ([…], time 28 day): 1 IU/L
